Patent US20090221622A1, “TOPOTECAN READY TO USE SOLUTIONS” (EAGLE PHARMACEUTICALS, INC., priority 2008, published 2009)
Read-outs that look alike come from different tables or passages of the source.

Tests used:
[1] = Description: […] […] Quantitatively, 0.01 area % is equivalent to 0.1 μg/mL of 10-HPCT.
The solution was filled into either flint glass vials or polyethylene vials. One portion of the solution was transferred into 5 ml glass vials and another portion was placed into 5 ml PE vials.

[2] = in vivo; cited from earlier work
[3] = aqueous media; cited from earlier work
[4] = Solubility of 10-HCPT in aqueous and acid media

| SMILES | 10-HCPT formed by degradation ([1]; 5 weeks, 1 mg/ml, pH 3.2) [%] | 10-HCPT formed by degradation ([1]; 12 weeks, 1 mg/mL, pH 1) [%] | 10-HCPT formed by degradation ([1]; 12 weeks, 1 mg/ml, pH 2) [%] | Dose limiting toxicity [2] | Solubility of 10-HCPT [3] | Solubility of 10-HCPT ([4]; 0.01N HCl containing 3% benzyl alcohol) | Increase of solubility of 10-HCPT ([4]; 0.01N HCl containing 3% benzyl alcohol versus about 2 ng/mL) [fold] | Solubility of 10-HCPT ([4]; 0.1 N HCl) [μg/mL] | Solubility of 10-HCPT ([4]; 0.1 N MSA) | Saturation solubility of 10 HCPT ([4]; 10% lactic acid) [µg/mL] | Solubility of 10 HCPT ([4]; 20% lactic acid solution) [µg/mL] | Concentration of 10-HCPT reached before it precipitates ([4]; formulations prepared in hydrochloric acid, pH 1.5 or less) | Solubility of 10-HCPT ([4]; starting value, without benzyl alcohol) |
| --- | --- | --- | --- | --- | --- | --- | --- | --- | --- | --- | --- | --- | --- |
| CC[C@@]1(O)C(=O)OCc2c1cc1n(c2=O)Cc2cc3c(CN(C)C)c(O)ccc3nc2-1 [Topotecan] | 5.64 | 0.07 | 0.6 | neutropenia (bone marrow suppression) and thrombocytopenia |  |  |  |  |  |  |  |  |  |
| CC[C@@]1(O)C(=O)OCc2c1cc1n(c2=O)Cc2cc3cc(O)ccc3nc2-1 [Example 10-HCPT, 10-hydroxycamptothecin] |  |  |  |  | about 2 ng/ml | about 10 μg/mL | ~5000 | 6 | about 6 μg/mL | 6.4 | 15 | about 4 μg/mL | about 2 ng/mL |
